System: Transport facilitation protein genes
Experiment: DNA chip mRNA expression in yeast, transport facilitation protein genes (Table 5)
Type: cell-based, Saccharomyces cerevisiae S288C
Description: Yeast (Saccharomyces cerevisiae S288C (α SUC2mal mel gap2 CUP1)) were incubated at 25° C. on YPD medium (yeast extract 1%, polypepton 2%, glucose 2%). One of toxic chemical substances was added to the cells at logarithmic growth phase, and the cells were further incubated for two hours. Cells were cultured without any chemical substance in the same condition, and were used as control. Concentrations of the chemical substances were defined to inhibit the growth of the yeast but not lead to death.
After completion of the incubation, the culture was centrifuged to collect the cells. To the cells, sodium acetate buffer (50 mM sodium acetate, 10 mM EDTA, 1% SDS) was added, and the mixture was shaken at 65° C. for five minutes, followed by returning to room temperature, and obtaining the supernatant, of which the procedures were repeated two times. To the supernatant, ½ amount of a solution of phenol/chloroform was added, and the mixture was centrifuged to give a supernatant, which was added with an equal amount of chloroform, and the mixture was centrifuged to give a supernatant. To the supernatant, an equal amount of isopropanol containing 0.3 M sodium acetate was added, and the mixture was allowed to stand at room temperature for 30 minutes, after which the mixture was centrifuged to give a sediment of the whole RNAs. Seventy % ethanol was added to the sediment, and the mixture was again centrifuged to give a sediment, which was then dried and dissolved in water. mRNA was isolated from the whole RNAs as followings. In view of the fact that a poly A chain is attached to the 3′ terminus of mRNA, a polynucleotide having a poly T structure which was immobilized on the surface of latex beads was used to trap the mRNA, and then the mRNA was washed and eluted with spine column (Oligotex-dT30<Super>mRNA Purification Kit, Takara). Reverse transcription of the mRNA was conducted with a reverse transcriptase (Super Script II Reverse Transcriptase; catalogue No. 18064-014, GibcoBRL) using fluorescence-labeled nucleotides to give cDNAs that were introduced with Cy3-dUTP or Cy5-dUTP during the reverse transcription.
The labeled cDNAs were dissolved in TE buffer (10mM Tris-HCl/1 mM EDTA, pH8.0), and the solution was dropped on the DNA chip containing the whole genes of yeast (DNA Chip Research Inc. Japan) so that the cDNAs were hybridized on the DNA chip at 65° C. for over 12 hours. The fluoresces intensity of the DNA chip was read with a scanner, and the ratio relative to the fluorescence intensity resulting from the absence of chemical substance was estimated as the following, which is shown in Tables 1 to 9: […]

Measured: The level of expressed mRNA in the presence of chemical substance/The level of expressed mRNA in the absence of chemical substance

Cl[C@H]1[C@H](Cl)[C@@H](Cl)[C@@H](Cl)[C@H](Cl)[C@H]1Cl [(7), γ-hexachlorocyclohexane]
4.3: yeast gene YBR207W | yeast gene YEL065W
1.4: yeast gene YGL008C | yeast gene YOR316C
1.5: yeast gene YCL038C | yeast gene YKL016C | yeast gene YNR072W
3.0: yeast gene YBR052C
2.2: yeast gene YOL119C
3.4: yeast gene YFL041W
1.6: yeast gene YBR295W | yeast gene YHR175W
0.5: yeast gene YDR497C | yeast gene YHR092C
2.0: yeast gene YDR086C | yeast gene YKR067W
0.7: yeast gene YCL025C | yeast gene YDR038C | yeast gene YDR343C | yeast gene YEL063C | yeast gene YGR138C | yeast gene YGR191W | yeast gene YIL022W | yeast gene YJL212C | yeast gene YJR077C | yeast gene YLR081W | yeast gene YLR378C | yeast gene YPR194C
0.9: yeast gene YBL030C | yeast gene YBL099W | yeast gene YBR127C | yeast gene YBR293W | yeast gene YDL128W | yeast gene YGR082W | yeast gene YGR096W | yeast gene YGR260W | yeast gene YGR281W | yeast gene YHR026W | yeast gene YJL219W | yeast gene YKL146W | yeast gene YLR348C | yeast gene YOL163W | yeast gene YOR332W | yeast gene YPR192W
0.4: yeast gene YGR224W | yeast gene YOR273C
4.0: yeast gene YHL040C
2.4: yeast gene YGR065C
0.8: yeast gene YCR024C-A | yeast gene YDL210W | yeast gene YDR039C | yeast gene YDR342C | yeast gene YEL027W | yeast gene YFL011W | yeast gene YFL050C | yeast gene YHR094C | yeast gene YIL006W | yeast gene YMR011W | yeast gene YMR162C | yeast gene YMR203W | yeast gene YOR348C
2.6: yeast gene YOR153W
1.2: yeast gene YCR098C | yeast gene YDL245C | yeast gene YGL104C | yeast gene YGL167C | yeast gene YNL055C | yeast gene YPL134C | yeast gene YPL271W
0.6: yeast gene YGR055W | yeast gene YIL056W
0.3: yeast gene YPL036W
16.8: yeast gene YHL047C
1.3: yeast gene YDR387C | yeast gene YGL006W | yeast gene YGR197C | yeast gene YJL034W | yeast gene YOR035C | yeast gene YOR130C
1.7: yeast gene YBR298C | yeast gene YDR270W | yeast gene YHL035C | yeast gene YIL088C
1.1: yeast gene YBR132C | yeast gene YBR294W | yeast gene YDR345C | yeast gene YFL054C | yeast gene YLR295C
3.8: yeast gene YNL259C
1.0: yeast gene YCR037C | yeast gene YDL198C | yeast gene YDR298C | yeast gene YGL255W | yeast gene YJR106W | yeast gene YJR121W | yeast gene YKR039W | yeast gene YLL028W | yeast gene YOL156W | yeast gene YOR270C
2.8: yeast gene YER053C

— patent US8192962B2, “Processes for detecting toxic substances” (Daikin Industries, Ltd., priority 2001, dated 2012)
